{"source": "EPA's ToxValDB 9.5 (doi:10.2903/j.efsa.2017.4722)", "key": {"Canidae": {"system": "Canidae", "details": "oral, Dog Other"}, "Oncorhynchus mykiss": {"system": "Oncorhynchus mykiss", "details": "acute; duration: 96 hours; mortality"}, "Anas platyrhynchos": {"system": "Anas platyrhynchos", "details": "acute; oral; unspecified; mortality"}, "Apis mellifera": {"system": "Apis mellifera", "details": "acute; oral; unspecified; mortality"}, "Colinus virginianus": {"system": "Colinus virginianus", "details": "for LD50: acute, oral, mortality"}, "Daphnia magna": {"system": "Daphnia magna", "details": "chronic/long-term; duration: 21 days; reproduction"}, "Landoltia sp.": {"system": "Landoltia sp.", "details": "chronic/long-term; duration: 14 days; frond number"}, "Lepomis macrochirus": {"system": "Lepomis macrochirus", "details": "acute; duration: 96 hours; oral; feed; mortality"}, "Neomysis kadiakensis": {"system": "Neomysis kadiakensis", "details": "acute; duration: 96 hours; oral; feed; mortality"}, "Pimephales promelas": {"system": "Pimephales promelas", "details": "chronic/long-term; duration: 35 days; other"}, "Typhlodromus pyri": {"system": "Typhlodromus pyri", "assay": "LR50; higher = less toxic", "details": "acute; mortality"}}, "data": [{"smiles": "OC1COC1", "note": "[Oxetan-3-ol]", "values": [{"measurement": "NOAEL", "setting": "Canidae; chronic, duration: 16 weeks, hematological", "value": 50, "unit": "mg/kg-day"}, {"measurement": "LC50", "setting": "Oncorhynchus mykiss", "value": "> 100", "unit": "µg/mL"}]}, {"smiles": "Cc1cc(C)nc(NC(=O)NS(=O)(=O)c2ccccc2C(=O)OC2COC2)n1", "note": "[Oxasulfuron]", "values": [{"measurement": "LD50", "setting": "Anas platyrhynchos", "value": "> 2250", "unit": "mg/kg-day"}, {"measurement": "LD50", "setting": "Apis mellifera", "value": "> 100", "unit": "µg/piece"}, {"measurement": "NOAEL", "setting": "Canidae; chronic, duration: 1 years, neurology", "value": 1.3, "unit": "mg/kg-day"}, {"measurement": "NOAEL", "setting": "Canidae; subchronic, duration: 90 days, neurology", "value": 1.3, "unit": "mg/kg-day"}, {"measurement": "LD50", "setting": "Colinus virginianus; diet", "value": "> 1610", "unit": "mg/kg-day"}, {"measurement": "LD50", "setting": "Colinus virginianus", "value": "> 2250", "unit": "mg/kg-day"}, {"measurement": "NOEL", "setting": "Colinus virginianus; reproduction developmental", "value": 6.91, "unit": "mg/kg-day"}, {"measurement": "NOEC", "setting": "Daphnia magna", "value": 14, "unit": "mg/L"}, {"measurement": "NOEC", "setting": "Landoltia sp.", "value": 0.0002, "unit": "mg/L"}, {"measurement": "LC50", "setting": "Lepomis macrochirus", "value": "> 111", "unit": "µg/mL"}, {"measurement": "LC50", "setting": "Neomysis kadiakensis", "value": 82.6, "unit": "µg/mL"}, {"measurement": "NOEC", "setting": "Pimephales promelas", "value": 114, "unit": "mg/L"}, {"measurement": "LD50", "setting": "Rattus norvegicus; acute, oral, mortality", "value": "> 5000", "unit": "mg/kg-day"}, {"measurement": "NOAEL", "setting": "Rattus norvegicus; chronic, duration: 2 years, histopathology: nonneoplastic", "value": 8.3, "unit": "mg/kg-day"}, {"measurement": "LC50", "setting": "Tagia sp.; acute, duration: 14 days, mortality", "value": "> 1000", "unit": "mg/kg"}, {"measurement": "NOEC", "setting": "Tagia sp.; chronic/long-term, duration: 56 days, reproduction", "value": 2, "unit": "mg/kg"}, {"measurement": "LR50", "setting": "Typhlodromus pyri", "value": 3.23, "unit": "g/ha"}]}]}
